In the supplement of paper PMC6045584:
± gives the standard deviation of the averaged measurements.

Assays:
BI-2536 = compound: CC[C@@H]1C(=O)N(C)c2cnc(Nc3ccc(C(=O)NC4CCN(C)CC4)cc3OC)nc2N1C1CCCC1 [BI-2536]; assay: surviving fraction relative to DMSO-only wells; higher = less growth inhibition; conditions: exposure time: 5 days
How it was run: (§1)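 Viability values are CellTiter-Glo luminescence readings, given as surviving fraction against the median of DMSO-only wells. The readings were taken after 10 minutes at room temperature, following five days of continuous exposure to inhibitors at 0.5, 1, 5, 10, 50, 100, 500 and 1000 nM that began 24 hours after log-phase tumour cell lines were seeded at 250–500 cells per well in 384-well plates. Every line was screened three times and kept only if replicate Pearson r >0.7 and median Z' >0.3.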

SAPACITABINE = compound: CCCCCCCCCCCCCCCC(=O)Nc1ccn([C@@H]2O[C@H](CO)[C@@H](O)[C@@H]2C#N)c(=O)n1 [SAPACITABINE]; assay: as above; conditions: exposure time: 5 days
How it was run: as §1

Row | Test System | surviving fraction (BI-2536; 0.5 nM) | surviving fraction (BI-2536; 1 nM) | surviving fraction (BI-2536; 5 nM) | surviving fraction (BI-2536; 10 nM) | surviving fraction (BI-2536; 50 nM) | surviving fraction (BI-2536; 100 nM) | surviving fraction (BI-2536; 500 nM) | surviving fraction (BI-2536; 1000 nM) | surviving fraction (SAPACITABINE; 0.5 nM) | surviving fraction (SAPACITABINE; 1 nM) | surviving fraction (SAPACITABINE; 5 nM) | surviving fraction (SAPACITABINE; 10 nM) | surviving fraction (SAPACITABINE; 50 nM) | surviving fraction (SAPACITABINE; 100 nM) | surviving fraction (SAPACITABINE; 500 nM) | surviving fraction (SAPACITABINE; 1000 nM)
1 | CHLA90 AUTONOMIC GANGLIA | 1.07 ± 0.045 | 0.978 ± 0.062 | 0.408 ± 0.032 | 0.203 ± 0.01 | 0.167 ± 0.027 | 0.135 ± 0.015 | 0.132 ± 0.0078 | 0.0863 ± 0.0025 | 0.843 ± 0.099 | 0.692 ± 0.038 | 0.797 ± 0.052 | 0.235 ± 0.019 | 0.889 ± 0.092 | 0.755 ± 0.057 | 0.641 ± 0.042 | 0.212 ± 0.038
2 | VP229 BREAST | 0.94 ± 0.022 | 0.729 ± 0.081 | 0.373 ± 0.093 | 0.234 ± 0.019 | 0.254 ± 0.042 | 0.247 ± 0.019 | 0.242 ± 0.025 | 0.19 ± 0.011 | 0.763 ± 0.17 | 0.668 ± 0.054 | 0.686 ± 0.11 | 0.643 ± 0.084 | 1 ± 0.14 | 0.835 ± 0.12 | 0.69 ± 0.099 | 0.669 ± 0.083
3 | NCIH441 LUNG | 1.03 ± 0.16 | 0.859 ± 0.11 | 0.571 ± 0.057 | 0.499 ± 0.041 | 0.502 ± 0.03 | 0.507 ± 0.022 | 0.36 ± 0.028 | 0.228 ± 0.01 | 1.042 ± 0.009 | 0.975 ± 0.077 | 1.02 ± 0.036 | 0.913 ± 0.034 | 0.53 ± 0.023 | 0.363 ± 0.051 | 0.34 ± 0.025 | 0.312 ± 0.023
4 | SCC003 HEADNECK | 1.06 ± 0.12 | 0.93 ± 0.027 | 0.467 ± 0.059 | 0.412 ± 0.066 | 0.596 ± 0.074 | 0.582 ± 0.033 | 0.381 ± 0.019 | 0.275 ± 0.028 | 0.85 ± 0.04 | 0.797 ± 0.068 | 0.885 ± 0.028 | 0.784 ± 0.047 | 1.05 ± 0.041 | 0.879 ± 0.026 | 0.481 ± 0.003 | 0.339 ± 0.014
5 | RDES SOFT TISSUE | 1.05 ± 0.086 | 1.11 ± 0.12 | 0.603 ± 0.18 | 0.0407 ± 0.0038 | 0.034 ± 0.0036 | 0.024 ± 0.001 | 0.0287 ± 0.0015 | 0.0297 ± 0.0035 | 0.706 ± 0.16 | 0.765 ± 0.047 | 0.717 ± 0.13 | 0.629 ± 0.12 | 0.919 ± 0.073 | 0.984 ± 0.034 | 0.779 ± 0.15 | 0.117 ± 0.052
6 | SUM159 BREAST | 0.968 ± 0.2 | 0.967 ± 0.19 | 0.953 ± 0.18 | 0.864 ± 0.17 | 0.194 ± 0.035 | 0.167 ± 0.077 | 0.131 ± 0.057 | 0.134 ± 0.05 | 0.954 ± 0.016 | 0.942 ± 0.01 | 0.947 ± 0.028 | 0.9227 ± 0.0074 | 0.935 ± 0.018 | 0.851 ± 0.018 | 0.42 ± 0.0061 | 0.34 ± 0.021
7 | SCC90 HEADNECK | 0.939 ± 0.12 | 0.461 ± 0.057 | 0.075 ± 0.0044 | 0.0887 ± 0.0087 | 0.148 ± 0.007 | 0.198 ± 0.022 | 0.217 ± 0.036 | 0.138 ± 0.011 | 0.88 ± 0.089 | 0.794 ± 0.074 | 0.862 ± 0.011 | 0.848 ± 0.053 | 1.06 ± 0.13 | 0.953 ± 0.087 | 0.853 ± 0.015 | 0.999 ± 0.064
8 | MDAMB157 BREAST | 0.912 ± 0.041 | 0.62 ± 0.19 | 0.0967 ± 0.0025 | 0.0937 ± 0.013 | 0.093 ± 0.0095 | 0.157 ± 0.033 | 0.224 ± 0.013 | 0.255 ± 0.0076 | 0.911 ± 0.034 | 0.859 ± 0.058 | 0.806 ± 0.077 | 0.755 ± 0.025 | 0.632 ± 0.069 | 0.619 ± 0.02 | 0.446 ± 0.02 | 0.306 ± 0.036
9 | ZR751 BREAST | 1.22 ± 0.024 | 1.27 ± 0.16 | 0.902 ± 0.075 | 0.655 ± 0.0093 | 0.72 ± 0.13 | 0.865 ± 0.094 | 0.645 ± 0.039 | 0.434 ± 0.061 | 1.02 ± 0.049 | 1 ± 0.21 | 1.01 ± 0.14 | 0.888 ± 0.13 | 1.01 ± 0.073 | 0.788 ± 0.011 | 0.627 ± 0.06 | 0.472 ± 0.039
10 | DU4475 BREAST | 0.997 ± 0.25 | 1.04 ± 0.051 | 0.536 ± 0.15 | 0.233 ± 0.047 | 0.0763 ± 0.027 | 0.057 ± 0.015 | 0.031 ± 0.0053 | 0.027 ± 0.002 | 0.637 ± 0.062 | 0.863 ± 0.13 | 0.743 ± 0.051 | 0.699 ± 0.12 | 0.655 ± 0.077 | 0.458 ± 0.049 | 0.16 ± 0.033 | 0.0713 ± 0.018
